Source: article PMC4124033 (Journal of molecular neuroscience : MN, 2010)

Legend:
[1] = biological target: T1, monoacylglycerol lipase (MAGL) (Homo sapiens, UniProt Q99685); format: biochemical
T1 sequence (Q99685 1-303): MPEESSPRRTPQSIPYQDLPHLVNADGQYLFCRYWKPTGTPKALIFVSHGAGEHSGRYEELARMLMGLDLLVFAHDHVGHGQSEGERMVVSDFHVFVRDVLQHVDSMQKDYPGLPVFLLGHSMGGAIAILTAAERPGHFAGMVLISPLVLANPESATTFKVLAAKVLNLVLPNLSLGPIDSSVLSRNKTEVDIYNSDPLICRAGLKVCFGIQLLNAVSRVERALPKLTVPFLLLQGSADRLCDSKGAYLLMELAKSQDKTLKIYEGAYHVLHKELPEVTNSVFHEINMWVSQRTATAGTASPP

[2] = biological target: T2, fatty acid amide hydrolase (FAAH) (Rattus norvegicus, UniProt P97612); format: biochemical
T2 sequence (P97612 1-579): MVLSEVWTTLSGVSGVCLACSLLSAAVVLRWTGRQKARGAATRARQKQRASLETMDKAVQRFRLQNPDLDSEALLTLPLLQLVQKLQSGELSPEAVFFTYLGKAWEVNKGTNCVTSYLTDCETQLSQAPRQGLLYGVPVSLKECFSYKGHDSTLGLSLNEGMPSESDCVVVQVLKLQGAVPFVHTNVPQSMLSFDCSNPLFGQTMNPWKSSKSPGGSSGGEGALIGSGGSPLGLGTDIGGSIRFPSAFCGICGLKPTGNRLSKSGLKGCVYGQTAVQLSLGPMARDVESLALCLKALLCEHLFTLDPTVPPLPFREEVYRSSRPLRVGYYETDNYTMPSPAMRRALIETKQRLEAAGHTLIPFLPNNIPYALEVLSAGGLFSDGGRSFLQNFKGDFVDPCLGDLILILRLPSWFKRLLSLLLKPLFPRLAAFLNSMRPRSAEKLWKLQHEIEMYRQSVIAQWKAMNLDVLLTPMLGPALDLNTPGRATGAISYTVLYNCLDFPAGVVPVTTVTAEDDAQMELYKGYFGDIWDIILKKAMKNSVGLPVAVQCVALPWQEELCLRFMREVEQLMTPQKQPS

IC50 [1]: 15.1 µM
IC50 [2]: 0.042 ± 0.006 µM
Substance: AM5206
